Legend:
Type in all cases: biochemical
cathepsin L = cathepsin L (Homo sapiens, UniProt P07711); test: Inhibitory activity assay against cathepsin L (enzyme assay); settings: Z-Phe-Arg-AMC 2 μM, enzyme 3 nM, pH 5.5, 30 minutes
Experimental: In order to measure the enzyme activity of cathepsin L, a buffer solution (pH 5.5) consisting of 50 mM MES, 2.5 mM DTT, 2.5 mM EDTA, 0.005% Polysorbate 20, and 10% DMSO was prepared. The substrate, the test material, and the enzyme were mixed in the buffer solution in a predetermined concentration. The Z-Phe-Arg-AMC substrate was used in the final concentration of 2 μM. The test material was used in the final concentrations of 10.0 μM, 3.33 μM, 1.11 μM, 0.370 μM, 0.123 μM, 0.0412 μM, 0.0137 μM, 0.00457 μM, 0.00152 μM, and 0.000508 μM, respectively. The cathepsin L enzyme was used in the final concentration of 3 nM. The final volume of the enzyme reaction solution was 10 μL. After reacting the mixture of substrate, test material, and enzyme for 30 minutes, the enzyme activity was measured with the EnVision (Perkin Elmer) microplate reader at an absorption wavelength of 340 nm and an emission wavelength of 460 nm. IC50 values were determined using 4-parameter logistic curve fit program of GraphPad Prism.

cathepsin B = cathepsin B (Homo sapiens, UniProt P07858); test: Inhibitory activity assay against cathepsin B (enzyme assay); settings: Z-Arg-Arg-AMC 40 μM, enzyme 1 nM, pH 6.0, 90 minutes
Experimental: In order to measure the enzyme activity of cathepsin B, a buffer solution (pH 6.0) consisting of 50 mM MES, 5 mM DTT, 2.5 mM EDTA, 0.005% Polysorbate 20, and 10% DMSO was prepared. The substrate, the test material, and the enzyme were mixed in the buffer solution in a predetermined concentration. The Z-Arg-Arg-AMC substrate was used in the final concentration of 40 μM. The test material was used in the final concentrations of 10.0 μM, 3.33 μM, 1.11 μM, 0.370 μM, 0.123 μM, 0.0412 μM, 0.0137 μM, 0.00457 μM, 0.00152 μM, and 0.000508 μM, respectively. The cathepsin B enzyme was used in the final concentration of 1 nM. The final volume of the enzyme reaction solution was 10 μL. After reacting the mixture of substrate, test material, and enzyme for 90 minutes, the enzyme activity was measured with the EnVision (Perkin Elmer) microplate reader at an absorption wavelength of 340 nm and an emission wavelength of 460 nm. IC50 values were determined using 4-parameter logistic curve fit program of GraphPad Prism.

cathepsin S = cathepsin S (Homo sapiens, UniProt P25774); test: Inhibitory activity assay against cathepsin S (enzyme assay); settings: Z-Phe-Arg-AMC 70 μM, enzyme 3 nM, pH 6.5, 45 minutes
Experimental: In order to measure the enzyme activity of cathepsin S, a buffer solution (pH 6.5) consisting of 50 mM MES, 2.5 mM DTT, 1.0 mM EDTA, 0.001% bovine serum albumin (BSA), and 10% DMSO was prepared. The substrate, the test material, and the enzyme were mixed in the buffer solution in a predetermined concentration. The Z-Phe-Arg-AMC substrate was used in the final concentration of 70 μM. The test material was used in the final concentrations of 10.0 μM, 3.33 μM, 1.11 μM, 0.370 μM, 0.123 μM, 0.0412 μM, 0.0137 μM, 0.00457 μM, 0.00152 μM, and 0.000508 μM, respectively. The cathepsin S enzyme was used in the final concentration of 3 nM. The final volume of the enzyme reaction solution was 10 μL.
After reacting the mixture of substrate, test material, and enzyme for 45 minutes, the enzyme activity was measured with the EnVision (Perkin Elmer) microplate reader at an absorption wavelength of 340 nm and an emission wavelength of 460 nm. IC50 values were determined using 4-parameter logistic curve fit program of GraphPad Prism.

cathepsin K = molecular target: T1, cathepsin K (Homo sapiens, UniProt P43235); test: Inhibitory activity assay against cathepsin K (enzyme assay); settings: Z-Phe-Arg-AMC 10 μM, enzyme 1 nM, pH 5.5, 30 minutes
T1 sequence (P43235 115-329): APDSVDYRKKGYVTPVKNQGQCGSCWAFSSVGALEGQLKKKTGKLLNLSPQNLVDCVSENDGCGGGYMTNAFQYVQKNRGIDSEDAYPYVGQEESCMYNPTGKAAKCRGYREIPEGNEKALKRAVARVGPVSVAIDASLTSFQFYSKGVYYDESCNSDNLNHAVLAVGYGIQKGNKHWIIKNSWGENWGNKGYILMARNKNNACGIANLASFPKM
Outline: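 IC50 by 4-parameter logistic fit of fluorescence (ex 355 nm, em 460 nm) after 30 min reaction. Compound tested at 10 final concentrations from 10.0 μM down to 0.000508 μM against 1 nM enzyme and 10 μM Z-Phe-Arg-AMC, in MES buffer pH 5.5 with DTT, EDTA, Triton X-100 and 10% DMSO.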

Sequence of cathepsin S (P25774 115-331, species assumed): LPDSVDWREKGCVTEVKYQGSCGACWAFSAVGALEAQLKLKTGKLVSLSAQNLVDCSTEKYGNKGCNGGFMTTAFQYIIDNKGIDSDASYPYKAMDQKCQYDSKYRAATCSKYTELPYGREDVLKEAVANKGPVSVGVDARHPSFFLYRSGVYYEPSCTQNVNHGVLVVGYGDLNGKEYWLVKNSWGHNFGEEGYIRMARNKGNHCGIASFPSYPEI
Sequence of cathepsin L (P07711 114-333, species assumed): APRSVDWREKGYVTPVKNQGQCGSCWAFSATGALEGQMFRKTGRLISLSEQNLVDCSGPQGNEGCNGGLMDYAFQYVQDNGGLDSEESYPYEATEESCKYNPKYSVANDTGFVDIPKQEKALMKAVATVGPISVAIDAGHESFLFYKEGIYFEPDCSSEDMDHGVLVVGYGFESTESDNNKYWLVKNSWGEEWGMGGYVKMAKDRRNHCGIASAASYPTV

Row | IC50 (cathepsin L) [nM] | IC50 (cathepsin B) [nM] | IC50 (cathepsin S) [nM] | IC50 (cathepsin K) [nM] | Compound
1 | 2460 | > 10000 | 7110 | 38.9 | N#Cc1nccc(C2(NC(=O)Nc3ccccc3)CCCCC2)n1 [Example 86, 1-(1-(2-cyanopyrimidin-4-yl)cyclohexyl)-3-phenylurea]
2 | 898 | > 10000 | 6260 | 3.6 | Cc1ccc(C)c(NC(=O)NC2(c3ccnc(C#N)n3)CCCCC2)c1 [Example 87, 1-(1-(2-cyanopyrimidin-4-yl)cyclohexyl)-3-(2,5-dimethylphenyl)urea]
3 | 7140 | > 10000 | > 10000 | 31.6 | N#Cc1nccc(C2(NC(=O)NCc3ccccc3)CCCCC2)n1 [Example 88, 1-benzyl-3-(1-(2-cyanopyrimidin-4-yl)cyclohexyl)urea]
4 | 6890 | > 10000 | > 10000 | 3.8 | N#Cc1nccc(C2(NC(=O)Nc3cccc(C(F)(F)F)c3)CCCCC2)n1 [Example 89, 1-(1-(2-cyanopyrimidin-4-yl)cyclohexyl)-3-(3-(trifluoromethyl)phenyl)urea]
5 | > 10000 | > 10000 | > 10000 | 68.2 | N#Cc1nccc(C2(NC(=O)Nc3ccc(C(F)(F)F)cc3)CCCCC2)n1 [Example 90, 1-(1-(2-cyanopyrimidin-4-yl)cyclohexyl)-3-(4-(trifluoromethyl)phenyl)urea]
6 | 4770 | > 10000 | > 10000 | 32.2 | N#Cc1nccc(C2(NC(=O)NCc3ccccc3C(F)(F)F)CCCCC2)n1 [Example 91, 1-(1-(2-cyanopyrimidin-4-yl)cyclohexyl)-3-(2-(trifluoromethyl)benzyl)urea]
7 | > 10000 | > 10000 | > 10000 | 40.9 | N#Cc1nccc(C2(NC(=O)Nc3ccccc3C(F)(F)F)CCCCC2)n1 [Example 92, 1-(1-(2-cyanopyrimidin-4-yl)cyclohexyl)-3-(2-(trifluoromethyl)phenyl)urea]
8 | > 10000 | > 10000 | > 10000 | 23.9 | N#Cc1nccc(C2(NC(=O)Nc3ccc(Cl)c(C(F)(F)F)c3)CCCCC2)n1 [Example 93, 1-(4-chloro-3-(trifluoromethyl)phenyl)-3-(1-(2-cyanopyrimidin-4-yl)cyclohexyl)urea]
9 | 1130 | > 10000 | 8240 | 9 | Cc1ccc(F)c(NC(=O)NC2(c3ccnc(C#N)n3)CCCCC2)c1 [Example 94, 1-(1-(2-cyanopyrimidin-4-yl)cyclohexyl)-3-(2-fluoro-5-methylphenyl)urea]

The remaining lines, values behind:

Row | Compound | IC50 (cathepsin L) [nM] | IC50 (cathepsin B) [nM] | IC50 (cathepsin S) [nM] | IC50 (cathepsin K) [nM]
10 | Cc1ccc(NC(=O)NC2(c3ccnc(C#N)n3)CCCC2)cc1C [Example 62, 1-(1-(2-cyanopyrimidin-4-yl)cyclopentyl)-3-(3,4-dimethylphenyl)urea] | > 10000 | > 10000 | > 10000 | 83.7
11 | Cc1cc(C)cc(NC(=O)NC2(c3ccnc(C#N)n3)CCCC2)c1 [Example 63, 1-(1-(2-cyanopyrimidin-4-yl)cyclopentyl)-3-(3,5-dimethylphenyl)urea] | > 10000 | > 10000 | > 10000 | 64.3
12 | Cc1cccc(NC(=O)NC2(c3ccnc(C#N)n3)CCCC2)c1C [Example 64, 1-(1-(2-cyanopyrimidin-4-yl)cyclopentyl)-3-(2,3-dimethylphenyl)urea] | 5510 | 5890 | > 10000 | 75.9
13 | N#Cc1nccc(C2(NC(=O)Nc3cc(F)ccc3F)CCCC2)n1 [Example 65, 1-(1-(2-cyanopyrimidin-4-yl)cyclopentyl)-3-(2,5-difluorophenyl)urea] | > 10000 | > 10000 | > 10000 | 46.6
14 | Cc1ccc(C(F)(F)F)cc1NC(=O)NC1(c2ccnc(C#N)n2)CCCC1 [Example 66, 1-(1-(2-cyanopyrimidin-4-yl)cyclopentyl)-3-(2-methyl-5-(trifluoromethyl)phenyl)urea] | > 10000 | > 10000 | > 10000 | 3.4
15 | N#Cc1nccc(C2(NC(=O)Nc3cc(F)ccc3C(F)(F)F)CCCC2)n1 [Example 67, 1-(1-(2-cyanopyrimidin-4-yl)cyclopentyl)-3-(5-fluoro-2-(trifluoromethyl)phenyl)urea] | > 10000 | > 10000 | > 10000 | 64.6
16 | N#Cc1nccc(C2(NC(=O)Nc3cccc4ccccc34)CCCC2)n1 [Example 74, 1-(1-(2-cyanopyrimidin-4-yl)cyclopentyl)-3-(naphthalen-1-yl)urea] | > 10000 | > 10000 | > 10000 | 27
17 | N#Cc1nccc(C2(NC(=O)Nc3ccc4ccccc4c3)CCCC2)n1 [Example 75, 1-(1-(2-cyanopyrimidin-4-yl)cyclopentyl)-3-(naphthalen-2-yl)urea] | > 10000 | > 10000 | > 10000 | 41
18 | N#Cc1nccc(C2(NC(=O)Nc3ccc4nccnc4c3)CCCC2)n1 [Example 77, 1-(1-(2-cyanopyrimidin-4-yl)cyclopentyl)-3-(quinoxalin-6-yl)urea] | > 10000 | > 10000 | > 10000 | 95.1
19 | N#Cc1nccc(C2(NC(=O)Nc3ccc4c(c3)OCO4)CCCC2)n1 [Example 78, 1-(benzo[d][1,3]dioxol-5-yl)-3-(1-(2-cyanopyrimidin-4-yl)cyclopentyl)urea] | > 10000 | > 10000 | > 10000 | 51.8
20 | N#Cc1nccc(C2(NC(=O)Nc3ccc4c(c3)CCC4)CCCC2)n1 [Example 82, 1-(1-(2-cyanopyrimidin-4-yl)cyclopentyl)-3-(2,3-dihydro-1H-inden-5-yl)urea] | > 10000 | 7610 | > 10000 | 54.5
21 | N#Cc1nccc(C2(NC(=O)Nc3cc(C(F)(F)F)ccc3F)CCCC2)n1 [Example 83, 1-(1-(2-cyanopyrimidin-4-yl)cyclopentyl)-3-(2-fluoro-5-(trifluoromethyl)phenyl)urea] | > 10000 | > 10000 | > 10000 | 17
22 | Cc1ccc(C)c(NC(=O)NC2(c3ccnc(C#N)n3)CCC(C)(C)CC2)c1 [Example 84, 1-(1-(2-cyanopyrimidin-4-yl)-4,4-dimethylcyclohexyl)-3-(2,5-dimethylphenyl)urea] | 3410 | > 10000 | 1680 | 44.3
23 | N#Cc1nccc(C2(NC(=O)Nc3ccc(F)c(C(F)(F)F)c3)CCOCC2)n1 [Example 85, 1-(4-(2-cyanopyrimidin-4-yl)tetrahydro-2H-pyran-4-yl)-3-(4-fluoro-3-(trifluoromethyl)phenyl)urea] | > 10000 | > 10000 | > 10000 | 28.2

From US11299478B2, “2-cyanopyrimidin-4-yl carbamate or urea derivative or salt thereof, and pharmaceutical composition including same” (HANLIM PHARMACEUTICAL CO., LTD., priority 2018, dated 2022)
